Data reported in patent US20240166652A1, “MODULATORS OF THE INTEGRATED STRESS PATHWAY” (Calico Life Sciences LLC, priority 2017, published 2024).

system: ATF4 luciferase reporter in HEK293T cells; assay: ATF4-Luc assay (ATF4 luciferase reporter, tunicamycin-treated HEK293T cells); type: cell-based, human; conditions: Homo sapiens, HEK-293T; HEK293T cells carrying the ATF4 luciferase reporter, 1 μg/mL tunicamycin, 7 hours

| Compound | EC50 |
| --- | --- |
| O=C(Cc1ccc(OC(F)(F)F)cc1)NC12CCC(NC(=O)COc3ccc(Cl)c(F)c3)(CC1)C(O)C2 (stereo not drawn) [Compound 340, 2-(4-chloro-3-fluorophenoxy)-N-(2-hydroxy-4-{2-[4-(trifluoromethoxy)phenyl]acetamido}bicyclo[2.2.2]octan-1-yl)acetamide] | 50 to 250 nM |
| O=C(COc1ccc(Cl)c(F)c1)NC12CC(NC(=O)Cc3ccc(C(F)(F)F)cc3)(C1)C2 [Compound 341, 2-(4-chloro-3-fluorophenoxy)-N-(3-{2-[4-(trifluoromethyl)phenyl]acetamido}bicyclo[1.1.1]pentan-1-yl)acetamide] | 50 to 250 nM |
| O=C(COc1ccc(Cl)c(F)c1)NC12CC(NC(=O)Cc3ccc(C(F)(F)F)nc3)(C1)C2 [Compound 342, 2-(4-chloro-3-fluorophenoxy)-N-(3-{2-[6-(trifluoromethyl)pyridin-3-yl]acetamido}bicyclo[1.1.1]pentan-1-yl)acetamide] | 250 to 500 nM |
| N#Cc1ccc(CNC23CCC(NC(=O)COc4ccc(Cl)c(F)c4)(CC2)CC3O)cc1 (stereo not drawn) [Compound 343, 2-(4-chloro-3-fluorophenoxy)-N-(4-{[(4-cyanophenyl)methyl]amino}-3-hydroxybicyclo[2.2.2]octan-1-yl)acetamide] | 50 to 250 nM |
| CS(=O)(=O)OC1CC2(NC(=O)COc3ccc(Cl)c(F)c3)CCC1(NC(=O)COc1ccc(Cl)c(F)c1)CC2 (stereo not drawn) [Compound 344, 1,4-bis[2-(4-chloro-3-fluorophenoxy)acetamido]bicyclo[2.2.2]octan-2-yl methanesulfonate] | < 10 nM |
| O=C(COc1ccc(Cl)c(F)c1)NC12CCC(NC(=O)COc3ccc(F)cc3)(CC1)C(O)C2 (stereo not drawn) [Compound 345, 2-(4-chloro-3-fluorophenoxy)-N-{4-[2-(4-fluorophenoxy)acetamido]-3-hydroxybicyclo[2.2.2]octan-1-yl}acetamide] | < 10 nM |
| O=C(/C=C/c1ccc(C(F)(F)F)cc1)NC12CC(NC(=O)COc3ccc(Cl)c(F)c3)(C1)C2 [Compound 346, (2E)-N-{3-[2-(4-chloro-3-fluorophenoxy)acetamido]bicyclo[1.1.1]pentan-1-yl}-3-[4-(trifluoromethyl)phenyl]prop-2-enamide] | 50 to 250 nM |
| COc1ccc(/C=C/C(=O)NC23CC(NC(=O)COc4ccc(Cl)c(F)c4)(C2)C3)cc1 [Compound 347, (2E)-N-{3-[2-(4-chloro-3-fluorophenoxy)acetamido]bicyclo[1.1.1]pentan-1-yl}-3-(4-methoxyphenyl)prop-2-enamide] | 250 to 500 nM |
| O=C(/C=C/c1ccc(Cl)c(Cl)c1)NC12CC(NC(=O)COc3ccc(Cl)c(F)c3)(C1)C2 [Compound 348, (2E)-N-{3-[2-(4-chloro-3-fluorophenoxy)acetamido]bicyclo[1.1.1]pentan-1-yl}-3-(3,4-dichlorophenyl)prop-2-enamide] | 10 to 50 nM |
| O=C(/C=C/c1ccccn1)NC12CC(NC(=O)COc3ccc(Cl)c(F)c3)(C1)C2 [Compound 349, (2E)-N-{3-[2-(4-chloro-3-fluorophenoxy)acetamido]bicyclo[1.1.1]pentan-1-yl}-3-(pyridin-2-yl)prop-2-enamide] | 500 to 2000 nM |
| O=C(/C=C/c1cccc(Cl)c1)NC12CC(NC(=O)COc3ccc(Cl)c(F)c3)(C1)C2 [Compound 350, (2E)-N-{3-[2-(4-chloro-3-fluorophenoxy)acetamido]bicyclo[1.1.1]pentan-1-yl}-3-(3-chlorophenyl)prop-2-enamide] | 50 to 250 nM |
| O=C(/C=C/c1ccc(C(F)(F)F)nc1)NC12CC(NC(=O)COc3ccc(Cl)c(F)c3)(C1)C2 [Compound 351, (2E)-N-{3-[2-(4-chloro-3-fluorophenoxy)acetamido]bicyclo[1.1.1]pentan-1-yl}-3-[6-(trifluoromethyl)pyridin-3-yl]prop-2-enamide] | 250 to 500 nM |
| O=C(/C=C/c1cccnc1)NC12CC(NC(=O)COc3ccc(Cl)c(F)c3)(C1)C2 [Compound 352, (2E)-N-{3-[2-(4-chloro-3-fluorophenoxy)acetamido]bicyclo[1.1.1]pentan-1-yl}-3-(pyridin-3-yl)prop-2-enamide] | 500 to 2000 nM |
| O=C(COc1cncc(C(F)(F)F)c1)NC12CCC(NC(=O)COc3ccc(Cl)c(F)c3)(C1)C2 [Compound 355, 2-(4-chloro-3-fluorophenoxy)-N-[4-(2-{[5-(trifluoromethyl)pyridin-3-yl]oxy}acetamido)bicyclo[2.1.1]hexan-1-yl]acetamide] | 50 to 250 nM |
| O=C(Cc1ccc(C(F)(F)F)cn1)NC12CCC(NC(=O)COc3ccc(Cl)c(F)c3)(CC1)C(O)C2 (stereo not drawn) [Compound 356, 2-(4-chloro-3-fluorophenoxy)-N-(2-hydroxy-4-{2-[5-(trifluoromethyl)pyridin-2-yl]acetamido}bicyclo[2.2.2]octan-1-yl)acetamide] | 10 to 50 nM |
| NC1CC2(NC(=O)COc3ccc(Cl)c(F)c3)CCC1(NC(=O)COc1ccc(Cl)c(F)c1)CC2 (stereo not drawn) [Compound 357, N,N′-(2-aminobicyclo[2.2.2]octane-1,4-diyl)bis[2-(4-chloro-3-fluorophenoxy)acetamide]] | < 10 nM |
| CC(=O)NC1CC2(NC(=O)COc3ccc(Cl)c(F)c3)CCC1(NC(=O)COc1ccc(Cl)c(F)c1)CC2 (stereo not drawn) [Compound 358, N,N′-(2-acetamidobicyclo[2.2.2]octane-1,4-diyl)bis[2-(4-chloro-3-fluorophenoxy)acetamide]] | < 10 nM |

| Compound | EC50 |
| --- | --- |
| O=C(COc1ccc(F)c(F)c1)NC12CCC(NC(=O)COc3ccc(C(F)(F)F)nc3)(CC1)C(O)C2 (stereo not drawn) [Compound 359, 2-(3,4-difluorophenoxy)-N-[3-hydroxy-4-(2-{[6-(trifluoromethyl)pyridin-3-yl]oxy}acetamido)bicyclo[2.2.2]octan-1-yl]acetamide] | 10 to 50 nM |
| O=C(COc1ccc(Cl)c(F)c1)NC12CC(NC(=O)Cc3noc4ccccc34)(C1)C2 [Compound 360, 2-(1,2-benzoxazol-3-yl)-N-{3-[2-(4-chloro-3-fluorophenoxy)acetamido]bicyclo[1.1.1]pentan-1-yl}acetamide] | > 2000 nM |
| O=C(COc1ccc(Cl)c(F)c1)NC12CC(NC(=O)Cc3cccc(OC(F)(F)F)c3)(C1)C2 [Compound 361, 2-(4-chloro-3-fluorophenoxy)-N-(3-{2-[3-(trifluoromethoxy)phenyl]acetamido}bicyclo[1.1.1]pentan-1-yl)acetamide] | > 2000 nM |
| O=C(COc1ccc(F)c(F)c1)NC12CCC(NC(=O)COc3ccc4c(c3)OC(F)(F)O4)(CC1)C(O)C2 (stereo not drawn) [Compound 362, 2-[(2,2-difluoro-2H-1,3-benzodioxol-5-yl)oxy]-N-{4-[2-(3,4-difluorophenoxy)acetamido]-2-hydroxybicyclo[2.2.2]octan-1-yl}acetamide] | < 10 nM |
| O=C(COc1ccc(F)c(F)c1)NC12CCC(NC(=O)COc3ccc(F)c(F)c3)(CC1)C(O)C2 (stereo not drawn) [Compound 363, N,N′-(2-hydroxybicyclo[2.2.2]octane-1,4-diyl)bis[2-(3,4-difluorophenoxy)acetamide]] | < 10 nM |
| O=C(COc1ccc(F)c(F)c1)NC12CCC(NC(=O)COc3ccc(F)cc3)(CC1)C(O)C2 (stereo not drawn) [Compound 364, 2-(3,4-difluorophenoxy)-N-{4-[2-(4-fluorophenoxy)acetamido]-3-hydroxybicyclo[2.2.2]octan-1-yl}acetamide] | < 10 nM |
| O=C(COc1ccc(Cl)c(F)c1)NC12CCC(NC(=O)COc3ccc(Cl)c(F)c3)(CC1)C(F)C2 (stereo not drawn) [Compound 365, N,N′-(2-fluorobicyclo[2.2.2]octane-1,4-diyl)bis[2-(4-chloro-3-fluorophenoxy)acetamide]] | < 10 nM |
| O=C(COc1ccc(Cl)c(F)c1)NC12CCC(NC(=O)COc3ccc(C(F)(F)F)nc3)(CC1)C(F)C2 (stereo not drawn) [Compound 366, 2-(4-chloro-3-fluorophenoxy)-N-[3-fluoro-4-(2-{[6-(trifluoromethyl)pyridin-3-yl]oxy}acetamido)bicyclo[2.2.2]octan-1-yl]acetamide] | 10 to 50 nM |
| O=C(/C=C/c1ccc(Cl)c(Cl)c1)NC12CC(NC(=O)/C=C/c3ccc(Cl)c(Cl)c3)(C1)C2 [Compound 367, (2E,2′E)-N,N′-(bicyclo[1.1.1]pentane-1,3-diyl)bis[3-(3,4-dichlorophenyl)prop-2-enamide]] | > 2000 nM |
| O=C(COc1ccc(Cl)cc1)NC12CC(NC(=O)COc3ccc(Cl)c(F)c3)(C1)C2 [Compound 368, 2-(4-chloro-3-fluorophenoxy)-N-{3-[2-(4-chlorophenoxy)acetamido]bicyclo[1.1.1]pentan-1-yl}acetamide] | < 10 nM |
| Cn1nc(C(F)(F)F)cc1OCC(=O)NC12CC(NC(=O)COc3ccc(Cl)c(F)c3)(C1)C2 [Compound 369, 2-(4-chloro-3-fluorophenoxy)-N-[3-(2-{[1-methyl-3-(trifluoromethyl)-1H-pyrazol-5-yl]oxy}acetamido)bicyclo[1.1.1]pentan-1-yl]acetamide] | > 2000 nM |
| O=C(/C=C/c1ccc(C(F)(F)F)cc1)NC12CC(NC(=O)/C=C/c3ccc(C(F)(F)F)cc3)(C1)C2 [Compound 370, (2E,2′E)-N,N′-(bicyclo[1.1.1]pentane-1,3-diyl)bis{3-[4-(trifluoromethyl)phenyl]prop-2-enamide}] | > 2000 nM |
| O=C(COc1ccc(Cl)c(F)c1)NC12CC(NC(=O)COc3ccnn3C3CC3)(C1)C2 [Compound 371, 2-(4-chloro-3-fluorophenoxy)-N-(3-{2-[(1-cyclopropyl-1H-pyrazol-5-yl)oxy]acetamido}bicyclo[1.1.1]pentan-1-yl)acetamide] | 250 to 500 nM |
| Cc1nn(C)c(C)c1OCC(=O)NC12CC(NC(=O)COc3ccc(Cl)c(F)c3)(C1)C2 [Compound 374, 2-(4-chloro-3-fluorophenoxy)-N-(3-{2-[(1,3,5-trimethyl-1H-pyrazol-4-yl)oxy]acetamido}bicyclo[1.1.1]pentan-1-yl)acetamide] | > 2000 nM |
| CN(C(=O)COc1ccc(Cl)c(F)c1)C12CCC(NC(=O)COc3ccc(Cl)c(F)c3)(CC1)C[C@@H]2O [Compound 375, 2-(4-chloro-3-fluorophenoxy)-N-{(2S)-4-[2-(4-chloro-3-fluorophenoxy)acetamido]-2-hydroxybicyclo[2.2.2]octan-1-yl}-N-methylacetamide] | 50 to 250 nM |
| O=C(/C=C/c1ccc(OC(F)(F)F)cn1)NC12CC(NC(=O)COc3ccc(Cl)c(F)c3)(C1)C2 [Compound 376, (2E)-N-{3-[2-(4-chloro-3-fluorophenoxy)acetamido]bicyclo[1.1.1]pentan-1-yl}-3-[5-(trifluoromethoxy)pyridin-2-yl]prop-2-enamide] | 250 to 500 nM |
